Measurements as given in patent US20140179664A1, “Heterocyclyl Pyrimidine Analogues As JAK Inhibitors” (Cellzome Limited, priority 2011, published 2014).

Experiments:
[1] = biological target: T1, JAK2 (Homo sapiens, UniProt O60674); assay: Kinobeads assay, JAK2; type: binding; settings: mixed Molt4/Ramos lysate, read-out: Inhibition values (IC50) JAK2
T1 construct: endogenous in cells; host or cells: Molt4 (ATCC CRL-1582) and Ramos (ATCC CRL-1596), mixed lysate 1:2
Procedure, shortened: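 IC50s come from capture competition: compound at various concentrations versus an immobilized aminopyrido-pyrimidine ligand for kinases in 1:2 Molt4/Ramos lysate (10 mg/mL), 3 h in a cold room. Captured JAK-family kinases were measured by specific-antibody dot blot with Odyssey infrared detection.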

[2] = biological target: T2, JAK1 (Homo sapiens, UniProt P23458); assay: Kinobeads assay, JAK1; type: binding; settings: mixed Molt4/Ramos lysate, read-out: Inhibition values (IC50) JAK1
T2 construct: endogenous in cells; host or cells: Molt4 (ATCC CRL-1582) and Ramos (ATCC CRL-1596), mixed lysate 1:2
Procedure, shortened: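 Competitive pulldown in combined Molt4 and Ramos lysates (1 vs 2 volumes): compound, as a nine-point 1:3 series, and kinobeads were shaken together for 3 hours in a cold room. Captured JAK1 was quantified on an infrared-read antibody dot blot and IC50 calculated. Controls held 2% DMSO without compound.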

T1 sequence (O60674 whole entry): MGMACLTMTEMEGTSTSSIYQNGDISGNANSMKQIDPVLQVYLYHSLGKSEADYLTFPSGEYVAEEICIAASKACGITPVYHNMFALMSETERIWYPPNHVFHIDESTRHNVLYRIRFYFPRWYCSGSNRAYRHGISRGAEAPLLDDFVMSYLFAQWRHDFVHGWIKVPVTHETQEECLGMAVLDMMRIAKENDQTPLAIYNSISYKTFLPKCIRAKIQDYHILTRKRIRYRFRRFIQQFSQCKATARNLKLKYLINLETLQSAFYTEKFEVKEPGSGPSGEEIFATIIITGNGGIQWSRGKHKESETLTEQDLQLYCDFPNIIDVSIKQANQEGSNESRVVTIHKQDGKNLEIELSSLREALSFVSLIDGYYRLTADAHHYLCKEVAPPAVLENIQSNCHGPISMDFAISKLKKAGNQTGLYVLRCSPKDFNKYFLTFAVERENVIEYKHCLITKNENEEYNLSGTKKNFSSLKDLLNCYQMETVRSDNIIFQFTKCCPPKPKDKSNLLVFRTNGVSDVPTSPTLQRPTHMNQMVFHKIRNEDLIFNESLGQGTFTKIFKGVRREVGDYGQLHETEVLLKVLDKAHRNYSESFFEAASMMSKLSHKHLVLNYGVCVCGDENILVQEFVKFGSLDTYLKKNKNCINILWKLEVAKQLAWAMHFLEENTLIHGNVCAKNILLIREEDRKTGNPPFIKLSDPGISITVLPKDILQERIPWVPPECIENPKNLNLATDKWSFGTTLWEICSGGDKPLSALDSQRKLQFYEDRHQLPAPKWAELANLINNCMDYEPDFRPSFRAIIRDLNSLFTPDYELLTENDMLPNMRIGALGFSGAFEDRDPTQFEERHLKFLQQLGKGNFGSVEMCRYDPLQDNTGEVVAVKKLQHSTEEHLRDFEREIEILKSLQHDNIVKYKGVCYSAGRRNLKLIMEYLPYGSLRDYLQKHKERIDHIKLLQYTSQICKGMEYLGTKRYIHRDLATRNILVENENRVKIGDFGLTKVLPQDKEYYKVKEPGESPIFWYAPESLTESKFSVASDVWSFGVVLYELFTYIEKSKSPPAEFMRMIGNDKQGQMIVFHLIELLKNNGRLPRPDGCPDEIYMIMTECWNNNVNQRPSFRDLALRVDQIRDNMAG
T2 sequence (P23458 whole entry): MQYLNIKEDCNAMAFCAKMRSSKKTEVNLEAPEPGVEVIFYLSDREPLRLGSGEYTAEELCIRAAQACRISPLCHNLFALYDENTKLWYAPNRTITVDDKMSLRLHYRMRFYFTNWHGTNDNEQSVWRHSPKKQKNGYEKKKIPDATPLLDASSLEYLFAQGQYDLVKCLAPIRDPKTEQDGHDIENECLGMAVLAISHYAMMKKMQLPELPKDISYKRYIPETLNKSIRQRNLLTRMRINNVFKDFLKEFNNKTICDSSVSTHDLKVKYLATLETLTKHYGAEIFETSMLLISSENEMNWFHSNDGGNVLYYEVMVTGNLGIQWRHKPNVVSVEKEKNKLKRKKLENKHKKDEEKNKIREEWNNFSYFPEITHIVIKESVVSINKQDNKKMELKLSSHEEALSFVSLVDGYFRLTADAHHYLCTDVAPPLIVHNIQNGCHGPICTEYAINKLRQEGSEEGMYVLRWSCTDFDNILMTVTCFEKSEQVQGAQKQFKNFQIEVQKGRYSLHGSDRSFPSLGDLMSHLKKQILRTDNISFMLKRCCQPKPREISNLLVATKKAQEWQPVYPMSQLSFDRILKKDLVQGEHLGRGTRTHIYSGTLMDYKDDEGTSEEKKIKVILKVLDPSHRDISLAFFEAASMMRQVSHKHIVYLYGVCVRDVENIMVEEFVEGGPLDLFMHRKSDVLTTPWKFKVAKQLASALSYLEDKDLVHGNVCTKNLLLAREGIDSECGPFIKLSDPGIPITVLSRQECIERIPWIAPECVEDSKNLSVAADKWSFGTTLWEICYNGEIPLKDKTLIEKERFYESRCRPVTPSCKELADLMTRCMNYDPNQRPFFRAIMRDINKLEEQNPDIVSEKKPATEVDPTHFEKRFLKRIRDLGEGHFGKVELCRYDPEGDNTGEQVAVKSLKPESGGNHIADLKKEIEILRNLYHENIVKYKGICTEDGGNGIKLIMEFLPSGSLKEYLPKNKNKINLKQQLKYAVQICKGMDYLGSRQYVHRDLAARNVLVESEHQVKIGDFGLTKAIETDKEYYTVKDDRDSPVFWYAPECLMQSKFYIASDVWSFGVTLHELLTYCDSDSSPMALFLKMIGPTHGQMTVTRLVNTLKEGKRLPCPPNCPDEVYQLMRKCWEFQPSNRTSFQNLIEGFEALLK

SMILES | IC50 [1] [nM] | IC50 [2] [nM]
OCCn1cc(Nc2ncc(Cl)c(N[C@H](CO)c3cccc(F)c3)n2)cn1 [Compound 86] | 100 to 1000 | 100 to 1000
Cn1cc(Nc2ncc(Cl)c(N[C@H](CO)c3cccnc3)n2)cn1 [Compound 91] | 1000 to 10000 | 100 to 1000
Cn1cc(Nc2ncc(Cl)c(N[C@H](CO)c3cccc(F)c3)n2)cn1 [Compound 85] | 100 to 1000 | 100 to 1000
OC[C@@H](Nc1nc(Nc2cn[nH]c2)ncc1Cl)c1cccc(F)c1 [Compound 88] | 100 to 1000 | 100 to 1000
CN(C)CCCNC(=O)Cn1cc(Nc2ncc(Cl)c(N[C@H](CO)c3ccccc3)n2)cn1 [Compound 90] | 1000 to 10000 | 100 to 1000
OCCn1cc(Nc2ncc(Cl)c(N[C@H](CO)c3cccnc3)n2)cn1 [Compound 92] | 1000 to 10000 | 100 to 1000
CN(C)CCNC(=O)Cn1cc(Nc2ncc(Cl)c(N[C@H](CO)c3ccccc3)n2)cn1 [Compound 89] | 1000 to 10000 | 100 to 1000
OCCn1cc(Nc2ncc(Cl)c(NC(CO)c3cccc(Br)c3)n2)cn1 (centres unmarked) [Compound 93] | 1000 to 10000 | 1000 to 10000
Cn1cc(Nc2ncc(F)c(N[C@H](CO)c3ccccc3)n2)cn1 [Compound 3] | ≥ 10000 | 1000 to 10000
NC(=O)Cn1cc(Nc2ncc(Cl)c(N[C@H](CO)c3cccc(F)c3)n2)cn1 [Compound 87] | 100 to 1000 | < 100
